Tested on: human tracheobronchial epithelial cells (hTECs) basal-ESC growth
Assay: hTEC growth in submerged 2D culture
Format: cell-based

O=c1ncn2nc(Sc3ccc(F)cc3F)ccc2c1-c1c(Cl)cccc1Cl [NuP-401, VX-745]
effect on basal cell growth: not found
